Measured values: patent US10336762B2 (priority 2017, dated 2019)
Where two headings read alike, the source gives them in different places.

Legend:
[1] = tested on: TNFα; assay: cells; type: cell-based, human; details: Homo sapiens, Monocyte, LPS-stimulated human monocytes, read-out: EC50 TNF
[2] = target: IRAK4 enzyme (Homo sapiens (Human), UniProt Q9NWZ3); assay: biochemical; type: biochemical; details: IRAK4 enzyme, 500 μM ATP
Sequence of IRAK4 enzyme (Q9NWZ3 whole entry): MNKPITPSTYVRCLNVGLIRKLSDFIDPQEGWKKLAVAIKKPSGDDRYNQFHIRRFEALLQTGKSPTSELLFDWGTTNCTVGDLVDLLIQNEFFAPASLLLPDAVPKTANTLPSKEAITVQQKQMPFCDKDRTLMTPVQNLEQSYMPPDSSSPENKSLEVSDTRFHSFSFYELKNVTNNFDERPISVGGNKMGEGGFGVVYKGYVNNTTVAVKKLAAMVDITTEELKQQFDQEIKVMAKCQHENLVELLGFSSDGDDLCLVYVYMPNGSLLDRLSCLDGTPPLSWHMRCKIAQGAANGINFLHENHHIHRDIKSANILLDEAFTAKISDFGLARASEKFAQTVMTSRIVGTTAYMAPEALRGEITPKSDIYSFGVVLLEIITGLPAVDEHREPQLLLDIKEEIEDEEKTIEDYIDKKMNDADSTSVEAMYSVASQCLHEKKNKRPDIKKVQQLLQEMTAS

| Compound | EC50 ([1]; TNFα content) | IC50 ([2]; TR-FRET) | IC50 ([2]; TR-FRET (HTRF)) | EC50 ([1]; TNFα by TR-FRET) |
| --- | --- | --- | --- | --- |
| CC(C)(O)[C@H](F)CNC(=O)c1cnc(-c2ccc3cc(C#N)cnn23)cc1N[C@H]1CCOC1 [Example 195, 6-(3-cyanopyrrolo[1,2-b]pyridazin-7-yl)-N-((R)-2-fluoro-3-hydroxy-3-methylbutyl)-4-(((S)-tetrahydrofuran-3-yl)amino)nicotinamide] | 0.037 µM | < 0.001 µM | – | – |
| CNC(=O)OC12CCC(Nc3cc(-c4ccc5cc(C#N)cnn45)ncc3C(=O)NC[C@@H](F)C(C)(C)O)(CC1)CC2 [Example 412, (R)-4-((2-(3-cyanopyrrolo[1,2-b]pyridazin-7-yl)-5-((2-fluoro-3-hydroxy-3-methylbutyl)carbamoyl)pyridin-4-yl)amino)bicyclo[2.2.2]octan-1-yl methylcarbamate] | 0.044 µM | – | 0.001 µM | – |
| CC(C)(O)[C@H](F)CNC(=O)c1cnc(-c2ccc3cc(C#N)cnn23)cc1N[C@H]1CCC[C@@H]1O [Example 262, 6-(3-cyanopyrrolo[1,2-b]pyridazin-7-yl)-N-((R)-2-fluoro-3-hydroxy-3-methylbutyl)-4-(((1S,2S)-2-hydroxycyclopentyl)amino)nicotinamide] | 0.021 µM | < 0.001 µM | – | – |
| CC(C)CC(=O)NC[C@H]1C[C@H](Nc2cc(-c3ccc4cc(C#N)cnn34)ncc2C(=O)NC[C@@H](F)C(C)(C)O)C1 [Example 826, 6-(3-cyanopyrrolo[1,2-b]pyridazin-7-yl)-N-((R)-2-fluoro-3-hydroxy-3-methylbutyl)-4-(((1r,3R)-3-((3-methylbutanamido)methyl)cyclobutyl)amino)nicotinamide] | – | < 0.001 µM | – | 0.032 µM |
| CC(C)(O)[C@H](F)CNC(=O)c1cnc(-c2ccc3cc(C#N)cnn23)cc1Nc1sc2c(c1C(N)=O)CCCC2 [Example 365, (R)-4-((3-carbamoyl-4,5,6,7-tetrahydrobenzo[b]thiophen-2-yl)amino)-6-(3-cyanopyrrolo[1,2-b]pyridazin-7-yl)-N-(2-fluoro-3-hydroxy-3-methylbutyl)nicotinamide] | 0.415 µM | 0.004 µM | – | – |
| C=CC(=O)NC12CCC(Nc3cc(-c4ccc5cc(C#N)cnn45)ncc3C(=O)NC[C@@H](F)C(C)(C)O)(CC1)CC2 [Example 424, (R)-4-((4-acrylamidobicyclo[2.2.2]octan-1-yl)amino)-6-(3-cyanopyrrolo[1,2-b]pyridazin-7-yl)-N-(2-fluoro-3-hydroxy-3-methyl-butyl)nicotinamide] | 0.018 µM | – | 0.001 µM | – |
| N#Cc1cnn2c(-c3cc(NC45CCC(O)(CC4)CC5)c(C(=O)N[C@H]4CNC4=O)cn3)ccc2c1 [Example 955, (S)-6-(3-cyanopyrrolo[1,2-b]pyridazin-7-yl)-4-((4-hydroxybicyclo[2.2.2]octan-1-yl)amino)-N-(2-oxo-azetidin-3-yl)nicotinamide] | – | < 0.001 µM | – | 0.399 µM |
| CC1(Nc2cc(-c3ccc4cc(C#N)cnn34)ncc2C(=O)NC[C@@H](F)C(C)(C)O)COC1 [Example 1, (R)-6-(3-cyanopyrrolo[1,2-b]pyridazin-7-yl)-N-(2-fluoro-3-hydroxy-3-methylbutyl)-4-((3-methyloxetan-3-yl)amino)nicotinamide] | 0.032 µM | < 0.001 µM | – | – |
| COC(=O)NCCNC(=O)c1cnc(-c2ccc3cc(C#N)cnn23)cc1NC12CCC(O)(CC1)CC2 [Example 746, methyl (2-(6-(3-cyano-pyrrolo[1,2-b]pyridazin-7-yl)-4-((4-hydroxy-bicyclo[2.2.2]octan-1-yl)amino)nicotinamido)ethyl)carbamate] | 0.105 µM | – | 0.001 µM | – |
| CC(C)(O)[C@H](F)CNC(=O)c1cnc(-c2ccc3cc(C#N)cnn23)cc1N[C@H]1C[C@H](CNC(=O)C2CC(F)(F)C2)C1 [Example 940, 6-(3-cyanopyrrolo[1,2-b]pyridazin-7-yl)-4-(((1r,3R)-3-((3,3-difluorocyclobutane-1-carboxamido)methyl)cyclobutyl)amino)-N-((R)-2-fluoro-3-hydroxy-3-methylbutyl)nicotinamide] | – | < 0.001 µM | – | 0.044 µM |
| CC(C)(O)[C@H](F)CNC(=O)c1cnc(-c2ccc3cc(C#N)cnn23)cc1NCC1CCS(=O)(=O)C1 (stereo partly drawn) [Example 74, 6-(3-cyanopyrrolo[1,2-b]pyridazin-7-yl)-4-(((1,1-dioxidotetrahydrothiophen-3-yl)methyl)amino)-N-((R)-2-fluoro-3-hydroxy-3-methylbutyl) nicotinamide] | 1.1 µM | 0.002 µM | – | – |
| CC(C)(O)[C@H](F)CNC(=O)c1cnc(-c2ccc3cc(C#N)cnn23)cc1Nc1ccc(O)nc1 [Example 435, (R)-6-(3-cyanopyrrolo[1,2-b]pyridazin-7-yl)-N-(2-fluoro-3-hydroxy-3-methylbutyl)-4-((6-hydroxypyridin-3-yl)amino)nicotinamide] | > 10 µM | – | 10 µM | – |
| CC(C)(O)[C@H](F)CNC(=O)c1cnc(-c2ccc3cc(C#N)cnn23)cc1NCC1CCC1 [Example 703, (R)-6-(3-cyano-pyrrolo[1,2-b]pyridazin-7-yl)-4-((cyclobutyl-methyl)amino)-N-(2-fluoro-3-hydroxy-3-methylbutyl)nicotinamide] | 0.045 µM | – | < 0.001 µM | – |
| COC(=O)NC[C@H]1C[C@H](Nc2cc(-c3ccc4cc(C#N)cnn34)ncc2C(=O)NC[C@@H](F)C(C)(C)O)C1 [Example 545, Methyl (((1R,3r)-3-((2-(3-cyanopyrrolo[1,2-b]pyridazin-7-yl)-5-(((R)-2-fluoro-3-hydroxy-3-methylbutyl)carbamoyl)pyridin-4-yl)amino)cyclobutyl)methyl)carbamate] | 0.005 µM | – | < 0.001 µM | – |
| CC(C)(O)[C@H](F)CNC(=O)c1cnc(-c2ccc3cc(C#N)cnn23)cc1N[C@H]1CC[C@@H](OC(=O)NC2CC2)CC1 [Example 166, (1S,4s)-4-((2-(3-cyano-pyrrolo[1,2-b]pyridazin-7-yl)-5-(((R)-2-fluoro-3-hydroxy-3-methylbutyl)carbamoyl)pyridin-4-yl)amino)cyclohexyl cyclopropylcarbamate] | > 10 µM | 0.741 µM | – | – |
| CC(C)(O)C1CCC(Nc2cc(-c3ccc4cc(C#N)cnn34)ncc2C(=O)NC[C@@H](F)C(C)(C)O)CC1 (stereo partly drawn) [Example 273, 6-(3-cyanopyrrolo[1,2-b]pyridazin-7-yl)-N-((R)-2-fluoro-3-hydroxy-3-methylbutyl)-4-(((1r,4R)-4-(2-hydroxypropan-2-yl)cyclohexyl)amino) nicotinamide] | 0.022 µM | 0.002 µM | – | – |
| CC(C)Oc1cncc(Nc2cc(-c3ccc4cc(C#N)cnn34)ncc2C(=O)NC[C@@H](F)C(C)(C)O)c1 [Example 851, (R)-6-(3-cyanopyrrolo[1,2-b]pyridazin-7-yl)-N-(2-fluoro-3-hydroxy-3-methylbutyl)-4-((5-isopropoxypyridin-3-yl)amino)nicotinamide] | – | < 0.001 µM | – | 0.012 µM |
| COC(=O)NC[C@@H]1CCCN1c1ccc(Nc2cc(-c3ccc4cc(C#N)cnn34)ncc2C(=O)NC[C@@H](F)C(C)(C)O)cn1 [Example 879, methyl (((S)-1-(5-((2-(3-cyanopyrrolo[1,2-b]pyridazin-7-yl)-5-(((R)-2-fluoro-3-hydroxy-3-methylbutyl)carbamoyl)pyridin-4-yl)amino)pyridin-2-yl)pyrrolidin-2-yl)methyl)carbamate] | – | 0.001 µM | – | 0.225 µM |
| CNC(=O)c1cnc(-c2ccc3cc(C#N)cnn23)cc1NC12CCC(C(=O)N3CC(F)(F)C3)(CC1)CC2 [Example 483, 6-(3-cyanopyrrolo[1,2-b]pyridazin-7-yl)-4-((4-(3,3-difluoroazetidine-1-carbonyl)bicyclo[2.2.2]octan-1-yl)amino)-N-methylnicotinamide] | 0.064 µM | – | 0.001 µM | – |
| CC(C)(C)Nc1cc(-c2ccc3cc(C#N)cnn23)ncc1C(=O)NC[C@@H](F)C(C)(C)O [Example 33, (R)-4-(tert-butylamino)-6-(3-cyanopyrrolo[1,2-b]pyridazin-7-yl)-N-(2-fluoro-3-hydroxy-3-methylbutyl)nicotinamide] | 0.029 µM | < 0.001 µM | – | – |
| CC(C)(O)[C@H](F)CNC(=O)c1cnc(-c2ccc3cc(C#N)cnn23)cc1Nc1cnccn1 [Example 185, (R)-6-(3-cyanopyrrolo[1,2-b]pyridazin-7-yl)-N-(2-fluoro-3-hydroxy-3-methylbutyl)-4-(pyrazin-2-ylamino)nicotinamide] | 0.046 µM | < 0.001 µM | – | – |
| CC(C)(O)[C@H](F)CNC(=O)c1cnc(-c2ccc3cc(C#N)cnn23)cc1-n1cc(-c2ccc(N)cn2)cn1 [Example 939, (R)-4-(4-(5-aminopyridin-2-yl)-1H-pyrazol-1-yl)-6-(3-cyanopyrrolo[1,2-b]pyridazin-7-yl)-N-(2-fluoro-3-hydroxy-3-methyl-butyl)nicotinamide] | – | 0.642 µM | – | > 10 µM |
| COC(=O)N1CCC(Nc2cc(-c3ccc4cc(C#N)cnn34)ncc2C(=O)NC[C@@H](F)C(C)(C)O)CC1 [Example 242, (R)-methyl 4-((2-(3-cyano-pyrrolo[1,2-b]pyridazin-7-yl)-5-((2-fluoro-3-hydroxy-3-methylbutyl)carbamoyl)pyridin-4-yl)amino)piperidine-1-carboxylate] | 0.191 µM | 0.002 µM | – | – |
| Cc1cn2ccc(Nc3cc(-c4ccc5cc(C#N)cnn45)ncc3C(=O)NC[C@@H](F)C(C)(C)O)cc2n1 [Example 563, (R)-6-(3-cyanopyrrolo[1,2-b]pyridazin-7-yl)-N-(2-fluoro-3-hydroxy-3-methylbutyl)-4-((2-methyl-imidazo[1,2-a]pyridin-7-yl)amino)nicotinamide] | 0.114 µM | – | 0.002 µM | – |
| N#Cc1cnn2c(-c3cc(NC45CCC(O)(CC4)CC5)c(C(=O)NCc4ccncc4)cn3)ccc2c1 [Example 932, 6-(3-cyanopyrrolo[1,2-b]pyridazin-7-yl)-4-((4-hydroxybicyclo[2.2.2]octan-1-yl)amino)-N-(pyridin-4-ylmethyl) nicotinamide] | – | 0.003 µM | – | 0.168 µM |
